Here are results for four molecules from patent US4637901A, “N-(alpha-haloacyl)-N-hydrocarbyl carbamoyl halides” (priority 1985, dated 1987).

Molecules are shown by their SMILES. Converted amounts (≈) assume the structure as drawn.

Holding throughout (type): in vivo
Assay [1] deals with certain mites and insects including the Bean Aphid, Southern Army Worm, Mexican Bean Beetle and house fly. In words: Pesticidal activity against certain mites and insects (overall comparison). The settings on record: for activity in words (comparison as set forth in Table I): prior art derivatives compared with derivatives of the invention. As to the method:
A comparision of an oxime derivative of the novel compounds of this invention was evaluated to determine its pesticidal activity against certain mites and insects including the Bean Aphid, Southern Army Worm, Mexican Bean Beetle and house fly. The oxime derivative was also compared with typical derivative of this oxime as disclosed in British Pat. No. 1,226,450.
(§1) Suspensions of the test compounds were prepared by dissolving one gram of compound in 50 milliliters of acetone in which had been dissolved 0.1 gram (10 percent of the weight of compound) of an alkylphenoxy polyethoxyethanol surfactant, as an emulsifying or dispersing agent. The resulting solution was mixed into 150 milliliters of water to give roughly 200 milliliters of a suspension containing the compound in finely divided form. The thus-prepared stock suspension contained 0.5 percent by weight of compound.
(§2) Certain of the test compounds were also prepared by dissolving 375 mg of compound in 7.5 ml of dimethylformamide. Fifteen ml of acetone containing 37.5 mg (10 percent of the weight of test compound) of an alkylphenoxy polyethoxyethanol surfactant, as a wetting/emulsifying/dispersing agent was added to the dimethylformamide solution. Fifty-two and a half ml of water was mixed into the dimethylformamide-acetone mixture to give roughly 75 ml of a suspension containing the compound in solution or in finely divided form. The thus prepared stock suspension contained 0.5 percent by weight of compound. The test concentrations in parts per million by weight employed in the tests described hereinbelow were obtained by appropriate dilutions of the stock suspension with water.

The test system of assay [2] is House Fly (Musca domestica, L.). In words: Fly Bait Test. The settings on record: 24 h, adult flies, sugar bait, twenty-four hours, read-out: Biological activity (LD50 in ppm), House Fly. The method, then:
as §1
as §2, with “water. The test procedures were as follows:” for “water.”
Four to six day old adult house flies (Musca domestica, L.), reared according to the specifications of the Chemical Specialties Manufacturing Association (Blue Book, McNair-Dorland Co., N.Y. 1954; pages 243-244, 261) under controlled conditions of 80°±5° F. and 50±5 percent relative humidity, were the test insects. The flies were immobilized by anesthetizing with carbon dioxide and twenty-five immobilized individuals, males and females, were transferred to a cage consisting of a standard food strainer about five inches in diameter which was inverted over a wrapping-paper-covered surface. […]

Assay [3] concerns Southern Armyworm (Spodoptera eridania, (Cram.)) larvae. As to the kind of experiment: Southern Armyworm Leaf Spray Bait Test. Particulars: 120 h, five days, read-out: Biological activity (LD50 in ppm), Southern Army Worm. The method, then: as §1
as §2, with “water. The test procedures were as follows:” for “water.”
Southern Armyworm Leaf Spray Bait Test
Larvae of the southern armyworm (Spodoptera eridania, (Cram.)), reared on Tendergreen bean plants at a temperature of 80°±5° F. and a relative humidity of 50±5 percent, constituted the test insects.
The test compounds were formulated by diluting the stock suspension with water to give a suspension containing 500 parts of test compound per million parts of final formulation. Potted Tendergreen bean plants of standard height and age were placed on a revolving turntable and sprayed with 100-110 milliliters of test compound formulation by use of a DeVilbiss spray gun set at 40 psig air pressure. This application, which lasted 25 seconds, was sufficient to wet plants to run-off. […] Percent mortality was recorded for various concentration levels.

Assay [4] deals with Bean Aphid (Aphis fabae Scop.). As to the kind of experiment: Bean Aphid Foliage Spray Test. Particulars: foliar, potted dwarf nasturtium plants, 24 hour holding period, read-out: Biological activity (LD50 in ppm), Bean Aphid. The method, then: as §1
as §2, with “water. The test procedures were as follows:” for “water.”
Bean Aphid Foliage Spray Test
Adults and nymphal stages of the bean aphid (Aphis fabae Scop.) reared on potted dwarf nasturtrium plants at 68°-70° F. and 50±5 percent relative humidity, constituted the test insects. For testing purposes, the number of aphids per pot was standardized to 100-150 by trimming plants containing excess aphids. […]
The potted plants (one pot per compound tested) infested with 100-150 aphids were placed on a revolving turntable and sprayed with 100-110 milliliters of test compound formulation by use of a DeVilbiss spray gun set at 40 psig air pressure. […] Percent mortality was recorded for various concentration levels.

For assay [5], the system named is Mexican Bean Beetle (Epilachna varivestis, Muls.) larvae. In words: Mexican Bean Beetle Leaf Spray Test. Particulars: 120 h, five days, read-out: Biological activity (LD50 in ppm), Mexican Bean Beetle. The method, then: as §1
as §2, with “water. The test procedures were as follows:” for “water.”
Mexican Bean Beetle Leaf Spray Test
Fourth instar larvae of the Mexican bean beetle (Epilachna varivestis, Muls.), reared on Tendergreen bean plants at a temperature of 80°±5° F. and 50±5 percent relative humidity, were the test insects.
For certain of the tests second instar larvae (weighing about 6 mg) of the Mexican bean beetle (Epilachna varvestis, Muls), reared on Seiva Pole lima bean plants at a temperature of 80°±5° F. and […] relative humidity, were the test insects.
The test compounds were formulated by diluting the stock suspension with water to give a suspension containing 500 parts of test compound per million parts of final formulation. […]

Turning to `COC(=O)Nc1ccc(OC(=O)N(C)C(=O)C[N+](C)(C)C)cc1C(C)C`, the “pesticidal properties (in words)” value in assay [1] (trimethyl amine salt of the N-haloacylcarbamate) was “excellent pesticidal properties”.

In the case of `CSC(C)=NOC(=O)N(C)C(=O)CCl` [(XII)], the LC50 in assay [2] came out at 6 µg/mL (≈ 25.1 µM); in assay [3], 20 µg/mL (≈ 83.8 µM); in assay [4] it was 16 µg/mL (≈ 67 µM); in assay [5], 35 µg/mL (≈ 147 µM).

For the molecule `CSC(C)=NOC(=O)N(C)C(=O)CCCCl` [(XIVa)], the LC50 amounted to 25 µg/mL (≈ 93.7 µM) in assay [2], 310 µg/mL (≈ 1160 µM) in assay [3], 37 µg/mL (≈ 139 µM) in assay [4] and 310 µg/mL (≈ 1160 µM) in assay [5]. For the same molecule, the “activity in words (comparison as set forth in Table I)” value in assay [1] was “less active or inactive”.

As to `CCC(=O)N(C)C(=O)ON=C(C)SC` [(XIVb)], the LC50 stood at 500 µg/mL (≈ 2290 µM) in assay [2], 60 µg/mL (≈ 275 µM) in assay [3], 500 µg/mL (≈ 2290 µM) in assay [4] and 200 µg/mL (≈ 916 µM) in assay [5]. The “activity in words (comparison as set forth in Table I)” value in assay [1] is “less active or inactive”.
